Results as given in the supplement of paper PMC11208160.

Assay: recombinant UMI read abundance after kanamycin selection (control-corrected) (log10(CPM+1)); higher = more efficient recombination; extreme values may be limits of the assay; sequences stand for … in AGTGCAGAGAAAATCGGCCAGTTTTCTCTGCCTGCAGTCCGCATGCCGTGGGACCCCTTGGGTTCTAACCTGTTGCCTAGATTTATGCAGCGGACTGCCTTTCTCCCAAAGTGATAAACCGG…AGGTTGGTTTCACT; site = the 11-nt donor
Procedure, shortened: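 Reported values are log10(CPM+1) from a pooled Escherichia coli screen of donor and donor-binding-loop pairs for the IS621 bridge recombinase. Selection used IPTG (0.07 mM) plus kanamycin, against unselected plating, each in two replicates. Recombinant UMIs were amplified across the donor–target junction, sequenced, converted to CPM, averaged over replicates and scaled by control-derived factors.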
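Also: IS621 bridge recombinase in Escherichia coli cells against a fixed T5 target plasmid.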

Row | Sequence | recombinant UMI read abundance (log10)
1 | CTAGTATCATGGACCGGTTTTCCCGGTAATCCGTATTTGAC (site ATGGTATCTGT) | 0.837
2 | CTAGTATCATGGACCGGTTTTCCCGGTAATCCGTATTTGAC (site CAAATATCTGT) | 0
3 | CTAGTATCATGGACCGGTTTTCCCGGTAATCCGTATTTGAC (site CAAGAATCTGT) | 0
4 | CTAGTATCATGGACCGGTTTTCCCGGTAATCCGTATTTGAC (site CAAGTAACTGT) | 0.0563
5 | CTAGTATCATGGACCGGTTTTCCCGGTAATCCGTATTTGAC (site CAAGTATCTCT) | 0.473
6 | CTAGTATCATGGACCGGTTTTCCCGGTAATCCGTATTTGAC (site CAAGTATCTGA) | 0
7 | CTAGTATCATGGACCGGTTTTCCCGGTAATCCGTATTTGAC (site CAAGTATCTGT) | 2.47
8 | CTAGTATCATGGACCGGTTTTCCCGGTAATCCGTATTTGAC (site CAAGTCTCTGT) | 0
9 | CTAGTATCATGGACCGGTTTTCCCGGTAATCCGTATTTGAC (site CACGTATCTGT) | 0.0166
10 | CTAGTATCATGGACCGGTTTTCCCGGTAATCCGTATTTGAC (site CCACTATCTGT) | 0
11 | CTAGTATCATGGACCGGTTTTCCCGGTAATCCGTATTTGAC (site CCAGCATCTGT) | 0.00896
12 | CTAGTATCATGGACCGGTTTTCCCGGTAATCCGTATTTGAC (site CCAGTAGCTGT) | 0
13 | CTAGTATCATGGACCGGTTTTCCCGGTAATCCGTATTTGAC (site CCAGTATCTGG) | 0
14 | CTAGTATCATGGACCGGTTTTCCCGGTAATCCGTATTTGAC (site CCAGTATCTGT) | 2.69
15 | CTAGTATCATGGACCGGTTTTCCCGGTAATCCGTATTTGAC (site CCAGTATCTTT) | 0.412
16 | CTAGTATCATGGACCGGTTTTCCCGGTAATCCGTATTTGAC (site CCAGTTTCTGT) | 0
17 | CTAGTATCATGGACCGGTTTTCCCGGTAATCCGTATTTGAC (site CCGGTATCTGT) | 0.281

Row | Sequence | recombinant UMI read abundance (log10)
18 | CTAGTATCATGGACCGGTTTTCCCGGTAATCCGTATTTGAC (site CGAGGATCTGT) | 0
19 | CTAGTATCATGGACCGGTTTTCCCGGTAATCCGTATTTGAC (site CGAGTACCTGT) | 0
20 | CTAGTATCATGGACCGGTTTTCCCGGTAATCCGTATTTGAC (site CGAGTATCTAT) | 0
21 | CTAGTATCATGGACCGGTTTTCCCGGTAATCCGTATTTGAC (site CGAGTATCTGC) | 0
22 | CTAGTATCATGGACCGGTTTTCCCGGTAATCCGTATTTGAC (site CGAGTATCTGT) | 0.849
23 | CTAGTATCATGGACCGGTTTTCCCGGTAATCCGTATTTGAC (site CGAGTGTCTGT) | 0
24 | CTAGTATCATGGACCGGTTTTCCCGGTAATCCGTATTTGAC (site CGATTATCTGT) | 0
25 | CTAGTATCATGGACCGGTTTTCCCGGTAATCCGTATTTGAC (site CGTGTATCTGT) | 0
26 | CTAGTATCATGGACCGGTTTTCCCGGTAATCCGTATTTGAC (site CTAAAATCTGT) | 0
27 | CTAGTATCATGGACCGGTTTTCCCGGTAATCCGTATTTGAC (site CTAATAACTGT) | 0
28 | CTAGTATCATGGACCGGTTTTCCCGGTAATCCGTATTTGAC (site CTAATATCTCT) | 0.764
29 | CTAGTATCATGGACCGGTTTTCCCGGTAATCCGTATTTGAC (site CTAATATCTGA) | 0
30 | CTAGTATCATGGACCGGTTTTCCCGGTAATCCGTATTTGAC (site CTAATATCTGT) | 1.63
31 | CTAGTATCATGGACCGGTTTTCCCGGTAATCCGTATTTGAC (site CTAATCTCTGT) | 0
32 | CTAGTATCATGGACCGGTTTTCCCGGTAATCCGTATTTGAC (site CTACCATCTGT) | 0
33 | CTAGTATCATGGACCGGTTTTCCCGGTAATCCGTATTTGAC (site CTACTAGCTGT) | 0
34 | CTAGTATCATGGACCGGTTTTCCCGGTAATCCGTATTTGAC (site CTACTATCTGG) | 0
